The source of these data is patent US9393232B2 (BeiGene, Ltd., priority 2013, dated 2016).

What is called IC50 is the concentration at which inhibition is half-maximal. Broadly, the EC50 is the midpoint of the concentration-response curve.

For assay [1], the target named is Recombinant human BRD2(1-473) (Homo sapiens (Human), UniProt P25440). As to the kind of experiment: BRD2 TR-FRET biochemical IC50 assay. Type of assay: binding. (In general: Time-resolved FRET reads energy transfer from a long-lived donor to a nearby acceptor.)
The target of assay [2] is Recombinant human BRD4(1-477) (Homo sapiens (Human), UniProt O60885). As to the kind of experiment: BRD4 TR-FRET biochemical IC50 assay. The class given is binding. The note with it: tetra-acetylated histone peptide.
Assay [3] addresses Recombinant human BRD3(1-435) (Homo sapiens (Human), UniProt Q15059). As to the kind of experiment: BRD3 TR-FRET biochemical IC50 assay. Type of assay: binding.
Assay [4] concerns the target Recombinant human BRDT(1-397) (Homo sapiens (Human), UniProt Q58F21). In words: BRDT TR-FRET biochemical IC50 assay. The class given is binding.
The subject of another assay is MV4-11. In words: MV4-11 (3 Days) EC50. Type of assay: cell-based.
The mark [5] stands for this setting: TR-FRET, tetra-acetylated histone peptide, read-out: BRD2 IC50.
The mark [6] stands for this setting: TR-FRET, tetra-acetylated histone peptide, read-out: BRD3 IC50.
Setting [7] is: TR-FRET, tetra-acetylated histone peptide, read-out: BRDT IC50.

Read-outs that look alike come from different tables or passages of the source.

Chain of Recombinant human BRD2(1-473) (P25440 1-473): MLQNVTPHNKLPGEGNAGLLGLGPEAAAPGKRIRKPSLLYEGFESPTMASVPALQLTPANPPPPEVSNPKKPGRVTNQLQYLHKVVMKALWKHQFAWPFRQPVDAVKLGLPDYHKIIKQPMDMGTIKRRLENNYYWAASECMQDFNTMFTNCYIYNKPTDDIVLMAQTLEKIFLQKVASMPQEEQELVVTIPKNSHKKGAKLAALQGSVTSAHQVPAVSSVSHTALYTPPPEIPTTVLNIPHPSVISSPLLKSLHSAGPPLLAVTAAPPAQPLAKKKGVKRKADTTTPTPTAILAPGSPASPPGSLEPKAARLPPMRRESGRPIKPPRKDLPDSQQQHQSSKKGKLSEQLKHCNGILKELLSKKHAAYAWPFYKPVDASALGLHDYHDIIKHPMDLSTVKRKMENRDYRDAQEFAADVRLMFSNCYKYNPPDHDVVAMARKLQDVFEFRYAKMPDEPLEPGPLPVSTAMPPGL
Chain of Recombinant human BRD3(1-435) (Q15059 1-435): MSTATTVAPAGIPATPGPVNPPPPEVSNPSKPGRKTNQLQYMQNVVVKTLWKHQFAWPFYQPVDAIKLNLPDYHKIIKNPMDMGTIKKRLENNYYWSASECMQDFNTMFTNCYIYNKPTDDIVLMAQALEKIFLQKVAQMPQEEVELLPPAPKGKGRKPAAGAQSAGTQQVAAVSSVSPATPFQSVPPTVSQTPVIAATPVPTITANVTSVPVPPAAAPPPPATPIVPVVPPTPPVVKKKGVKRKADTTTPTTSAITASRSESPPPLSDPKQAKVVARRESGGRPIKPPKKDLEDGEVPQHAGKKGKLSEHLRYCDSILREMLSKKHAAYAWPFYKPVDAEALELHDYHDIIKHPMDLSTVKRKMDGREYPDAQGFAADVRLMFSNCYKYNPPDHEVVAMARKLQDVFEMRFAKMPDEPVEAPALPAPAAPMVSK

For `Cc1noc(C)c1-c1ccc2c(c1)C(O)(C1CCCCC1=O)C(=O)N2` (single isomer, unassigned) [Compound 1.30a, 5-(3,5-Dimethylisoxazol-4-yl)-3-hydroxy-3-(2-oxocyclohexyl)indolin-2-one], the half-maximal inhibitory concentration (IC50) in assay [1] (setting [5]) came to 52 nM; in assay [2] (TR-FRET, read-out: BRD4 IC50), 70 nM; in assay [3] (setting [6]), 25 nM; in assay [4] (setting [7]), 58 nM.

Turning to `Cc1noc(C)c1-c1ccc2c(c1)C(N[C@H](C)CO)(c1ccccc1)C(=O)N2` (single isomer, unassigned) [Compound 2.10a], the IC50 in assay [1] (setting [5]) was determined as 24 nM; in assay [3] (setting [6]), 23 nM; in assay [4] (setting [7]), 69 nM.

Regarding `Cc1noc(C)c1-c1ccc2c(c1)C(O)(c1ccsc1)C(=O)N2` (single isomer, unassigned) [Compound 4.1b, 5-(3,5-Dimethylisoxazol-4-yl)-3-hydroxy-3-(thiophen-3-yl)indolin-2-one], the IC50 in assay [1] stood at 18 nM; in assay [2] (BRD4 IC50, TR-FRET), 34 nM; in assay [3], 14 nM; in assay [4], 31 nM. This compound also registered an EC50 with MV4-11 (Homo sapiens, 72 h) of 73 nM.

In the case of `Cc1noc(C)c1-c1ccc2c(c1)C(NCC(C)O)(C1CCCCC1)C(=O)N2` (stereo in doubt) [Compound 2.22, 3-cyclohexyl-5-(3,5-dimethylisoxazol-4-yl)-3-((R)-2-hydroxypropylamino)indolin-2-one], the IC50 in assay [1] (setting [5]) was 32 nM; in assay [2] (TR-FRET, read-out: BRD4 IC50) it was 81 nM; in assay [3] (setting [6]), 23 nM; in assay [4] (setting [7]), 42 nM. This compound also had a concentration giving a half-maximal response (EC50) in the assay on MV4-11 of 116 nM.

`Cc1noc(C)c1-c1ccc2c(c1)C(O)(C1CCOCC1)C(=O)N2` (stereo not drawn) [Compound 1.16, 5-(3,5-dimethylisoxazol-4-yl)-3-hydroxy-3-(tetrahydro-2H-pyran-4-yl)indolin-2-one]: the concentration for half-maximal inhibition (IC50) in assay [1] (setting [5]) stood at 380 nM; in assay [2] (TR-FRET, read-out: BRD4 IC50) it was 630 nM; in assay [3] (setting [6]), 140 nM; in assay [4] (setting [7]), 510 nM.

On to `Cc1noc(C)c1-c1ccc2c(c1)C(c1ccccc1)(N1CCC[C@H](O)C1)C(=O)N2` (stereo partly drawn) [Compound 2.16, 5-(3,5-dimethylisoxazol-4-yl)-3-((S)-3-hydroxypiperidin-1-yl)-3-phenylindolin-2-one], for which the IC50 in assay [1] (setting [5]) was 9.6 nM; in assay [3] (setting [6]), 9.9 nM; in assay [4] (setting [7]), 23 nM.

Consider `Cc1noc(C)c1-c1ccc2c(c1)C(c1ccccc1)(N1CCC[C@H](N)C1)C(=O)N2` (stereo partly drawn) [Compound 2.46, 3-((S)-3-aminopiperidin-1-yl)-5-(3,5-dimethylisoxazol-4-yl)-3-phenylindolin-2-one], for which the concentration for half-maximal inhibition (IC50) in assay [1] (setting [5]) was 6.6 nM; in assay [2] (TR-FRET, read-out: BRD4 IC50), 11 nM; in assay [3] (setting [6]) it was 5.3 nM; in assay [4] (setting [7]), 14 nM.

As to `Cc1noc(C)c1-c1ccc2c(c1)C(CCCN1CCOCC1)(c1ccccc1)C(=O)N2` (stereo not drawn) [Compound 3.6, 5-(3,5-dimethylisoxazol-4-yl)-3-(3-morpholinopropyl)-3-phenylindolin-2-one], the IC50 in assay [2] (TR-FRET, read-out: BRD4 IC50) stood at 100 nM. For the same compound, the EC50 in the assay with MV4-11 (Homo sapiens, MV4-11, 72 h) was found to be 270 nM.

For `Cc1noc(C)c1-c1ccc2c(c1)C(CCCN1CCN(C)CC1)(c1ccccc1)C(=O)N2` (stereo not drawn) [Compound 3.7, 5-(3,5-Dimethylisoxazol-4-yl)-3-(3-(4-methylpiperazin-1-yl)propyl)-3-phenylindolin-2-one], in assay [2] (TR-FRET, read-out: BRD4 IC50), the 50% inhibitory concentration (IC50) was found to be 53 nM. Besides, the response in the assay with MV4-11 (Homo sapiens, MV4-11, 72 h) was half-maximal at 116 nM (EC50).

In the case of `Cc1noc(C)c1-c1ccc2c(c1)C(CCCN1CCNCC1)(c1ccccc1)C(=O)N2` (stereo not drawn) [Compound 3.8, 5-(3,5-Dimethylisoxazol-4-yl)-3-phenyl-3-(3-(piperazin-1-yl)propyl)indolin-2-one], in assay [2] (TR-FRET, read-out: BRD4 IC50), the half-inhibitory concentration (IC50) came out at 51 nM. The compound also displayed a concentration giving a half-maximal response (EC50) in the assay with MV4-11 (Homo sapiens, MV4-11, 72 h) of 62 nM.

In the case of `Cc1noc(C)c1-c1ccc2c(c1)C(CCCN1CCC(O)CC1)(c1ccccc1)C(=O)N2` (stereo not drawn) [Compound 3.9, 5-(3,5-Dimethylisoxazol-4-yl)-3-(3-(4-hydroxypiperidin-1-yl)propyl)-3-phenylindolin-2-one], the IC50 in assay [2] (TR-FRET, read-out: BRD4 IC50) amounted to 120 nM. Also, the EC50 in the assay on MV4-11 (Homo sapiens, MV4-11, 72 h) is 377 nM.

For `Cc1noc(C)c1-c1ccc2c(c1)C(CCCN(C)C)(c1ccccc1)C(=O)N2` (stereo not drawn) [Compound 3.10, 3-(3-(Dimethylamino)propyl)-5-(3,5-dimethylisoxazol-4-yl)-3-phenylindolin-2-one], the IC50 in assay [2] (TR-FRET, read-out: BRD4 IC50) turned out to be 140 nM. Moreover, it took 490 nM to reach a half-maximal effect in the assay with MV4-11 (Homo sapiens, MV4-11, 72 h) (EC50).

As for `Cc1noc(C)c1-c1ccc2c(c1)C(O)(c1ccsc1)C(=O)N2` (stereo not drawn) [Compound 4.1, 5-(3,5-Dimethylisoxazol-4-yl)-3-hydroxy-3-(thiophen-3-yl)indolin-2-one], the 50% inhibitory concentration (IC50) in assay [2] (TR-FRET, read-out: BRD4 IC50) was determined as 100 nM. The midpoint of the response in the assay with MV4-11 (Homo sapiens, 72 h), the EC50, lay at 140 nM.

Take `Cc1noc(C)c1-c1ccc2c(c1)C(NC(=O)CN(C)C)(c1ccccc1)C(=O)N2` (stereo not drawn) [Compound 6.0, 2-(Dimethylamino)-N-(5-(3,5-dimethylisoxazol-4-yl)-2-oxo-3-phenylindolin-3-yl)acetamide]: the IC50 in assay [2] (TR-FRET, read-out: BRD4 IC50) was 320 nM. For the same compound, it took 746 nM to reach a half-maximal effect in the assay on MV4-11 (Homo sapiens, MV4-11, 72 h) (EC50).
